Test results published in ChEMBL document CHEMBL4177582, “Modifications of flexible nonyl chain and nucleobase head group of (+)-erythro-9-(2's-hydroxy-3's-nonyl)adenine [(+)-EHNA] as adenosine deaminase inhibitors” (Bioorg Med Chem, 2017).
Each block holds one compound with its values, some of them ahead of it.

Assays:
Adenosine deaminase = target: T1, Adenosine deaminase (Bos taurus, UniProt P56658); assay: Inhibition of bovine adenosine deaminase pre-incubated for 5 mins before adenosine addition
T1 sequence (P56658 whole entry): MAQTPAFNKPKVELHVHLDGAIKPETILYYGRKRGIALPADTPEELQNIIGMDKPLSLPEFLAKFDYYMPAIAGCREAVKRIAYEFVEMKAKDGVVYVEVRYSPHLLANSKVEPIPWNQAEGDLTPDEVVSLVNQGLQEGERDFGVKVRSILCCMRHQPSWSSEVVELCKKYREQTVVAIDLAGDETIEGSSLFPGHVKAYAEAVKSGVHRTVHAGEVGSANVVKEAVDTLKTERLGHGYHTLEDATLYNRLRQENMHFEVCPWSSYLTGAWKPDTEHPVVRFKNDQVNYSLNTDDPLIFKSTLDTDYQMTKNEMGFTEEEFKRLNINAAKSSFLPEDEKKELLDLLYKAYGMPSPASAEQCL

[1] = Drug metabolism in human liver microsomes assessed as drug recovery pre-incubated at 37 degC for 5 mins before NADPH addition and measured after 30 mins by LC/MS/MS method; type: ADME, microsome; conditions: read-out: Drug recovery
[2] = Drug metabolism in rat liver microsomes assessed as drug recovery pre-incubated at 37 degC for 5 mins measured after 30 mins in absence of NADPH by LC/MS/MS method; type: ADME, microsome; conditions: read-out: Drug recovery
[3] = Drug metabolism in human liver microsomes assessed as metabolic turnover rate per 0.125 mg/ml protein pre-incubated at 37 degC for 5 mins before NADPH addition and measured after 30 mins by LC/MS/MS method; type: ADME, microsome; conditions: 0.5 h
[4] = Drug metabolism in mouse liver microsomes assessed as drug recovery pre-incubated at 37 degC for 5 mins before NADPH addition and measured after 30 mins by LC/MS/MS method; type: ADME, microsome; conditions: read-out: Drug recovery
[5] = Half life in mouse liver microsomes pre-incubated at 37 degC for 5 mins before NADPH addition and measured after 30 mins by LC/MS/MS method; type: ADME, microsome
[6] = Half life in rat liver microsomes pre-incubated at 37 degC for 5 mins before NADPH addition and measured after 30 mins by LC/MS/MS method; type: ADME, microsome
[7] = Half life in human liver microsomes pre-incubated at 37 degC for 5 mins before NADPH addition and measured after 30 mins by LC/MS/MS method; type: ADME, microsome
[8] = Drug metabolism in mouse liver microsomes assessed as metabolic turnover rate per 0.125 mg/ml protein pre-incubated at 37 degC for 5 mins before NADPH addition and measured after 30 mins by LC/MS/MS method; type: ADME, microsome; conditions: 0.5 h
[9] = Drug metabolism in rat liver microsomes assessed as drug recovery pre-incubated at 37 degC for 5 mins before NADPH addition and measured after 30 mins by LC/MS/MS method; type: ADME, microsome; conditions: read-out: Drug recovery
[10] = Drug metabolism in mouse liver microsomes assessed as drug recovery pre-incubated at 37 degC for 5 mins measured after 30 mins in absence of NADPH by LC/MS/MS method; type: ADME, microsome; conditions: read-out: Drug recovery
[11] = Drug metabolism in rat liver microsomes assessed as metabolic turnover rate per 0.125 mg/ml protein pre-incubated at 37 degC for 5 mins before NADPH addition and measured after 30 mins by LC/MS/MS method; type: ADME, microsome; conditions: 0.5 h
[12] = Drug metabolism in human liver microsomes assessed as drug recovery pre-incubated at 37 degC for 5 mins measured after 30 mins in absence of NADPH by LC/MS/MS method; type: ADME, microsome; conditions: read-out: Drug recovery

Compound: C[C@H](O)[C@@H](CCc1cccc(-c2ccccn2)c1)n1cnc2c(N)ncnc21
- remaining at 0.5 h [1]: 82%
- remaining at 0.5 h [2]: 100%
- Drug metabolism [3]: 0.06 nmol/min/mg
- Ki (Adenosine deaminase; read-out: Ki): 2.3 nM
- remaining at 0.5 h [4]: 58%
- half-life [5]: > 30 min
- half-life [6]: > 30 min
- half-life [7]: > 30 min
- Drug metabolism [8]: 0.15 nmol/min/mg
- remaining at 0.5 h [9]: 64%
- remaining at 0.5 h [10]: 100%
- Drug metabolism [11]: 0.12 nmol/min/mg
- remaining at 0.5 h [12]: 91%

Compound: C[C@H](O)[C@@H](CCc1ccc(C(F)(F)F)cc1)n1ccc2c(N)ncnc21
- Ki (Adenosine deaminase): Not Active

Compound: Cc1ccccc1SC[C@H]([C@H](C)O)n1cnc2c(N)ncnc21
- Ki (Adenosine deaminase; read-out: Ki): 66 nM

Compound: C[C@H](O)[C@@H](CCC1CCCCC1)n1cnc2c(N)ncnc21
- remaining at 0.5 h [1]: 65%
- remaining at 0.5 h [2]: 94%
- Drug metabolism [3]: 0.11 nmol/min/mg
- Ki (Adenosine deaminase; read-out: Ki): 1.9 nM
- remaining at 0.5 h [4]: 77%
- half-life [5]: > 30 min
- half-life [6]: 13 min
- half-life [7]: > 30 min
- Drug metabolism [8]: 0.07 nmol/min/mg
- remaining at 0.5 h [9]: 19%
- remaining at 0.5 h [10]: 92%
- Drug metabolism [11]: 0.44 nmol/min/mg
- remaining at 0.5 h [12]: 83%

Compound: Cc1cccc(SC[C@H]([C@H](C)O)n2cnc3c(N)ncnc32)c1
- Ki (Adenosine deaminase; read-out: Ki): 49 nM

Compound: CCCCSC[C@H]([C@H](C)O)n1cnc2c(N)ncnc21
- remaining at 0.5 h [1]: 94%
- remaining at 0.5 h [2]: 97%
- Drug metabolism [3]: < 0.04 nmol/min/mg
- Ki (Adenosine deaminase; read-out: Ki): 54 nM
- remaining at 0.5 h [4]: 100%
- half-life [5]: > 30 min
- half-life [6]: > 30 min
- half-life [7]: > 30 min
- Drug metabolism [8]: < 0.04 nmol/min/mg
- remaining at 0.5 h [9]: 86%
- remaining at 0.5 h [10]: 94%
- Drug metabolism [11]: 0.04 nmol/min/mg
- remaining at 0.5 h [12]: 85%

Compound: CC(C)(O)[C@@H](CCc1ccc(C(F)(F)F)cc1)n1cnc2c(N)ncnc21
- Ki (Adenosine deaminase; read-out: Ki): 69 nM

Compound: C[C@H](O)[C@@H](CCc1cccc(-c2cnccn2)c1)n1cnc2c(N)ncnc21
- remaining at 0.5 h [1]: 71%
- remaining at 0.5 h [2]: 85%
- Drug metabolism [3]: 0.09 nmol/min/mg
- Ki (Adenosine deaminase; read-out: Ki): 1.9 nM
- remaining at 0.5 h [4]: 57%
- half-life [5]: > 30 min
- half-life [6]: > 30 min
- half-life [7]: > 30 min
- Drug metabolism [8]: 0.16 nmol/min/mg
- remaining at 0.5 h [9]: 90%
- remaining at 0.5 h [10]: 94%
- Drug metabolism [11]: < 0.04 nmol/min/mg
- remaining at 0.5 h [12]: 94%

Compound: C[C@H](O)[C@@H](CCc1cccc(C(F)(F)F)c1)n1ccc2c(N)ncnc21
- Ki (Adenosine deaminase): Not Active

Compound: C[C@H](O)[C@@H](CCc1ccc(C(F)(F)F)cc1)n1ncc2c(N)ncnc21
- Ki (Adenosine deaminase): Not Active

Compound: C[C@H](O)[C@@H](CSc1ccccc1)n1cnc2c(N)ncnc21
- Ki (Adenosine deaminase; read-out: Ki): 135 nM

Compound: CCc1ccc(CC[C@H]([C@H](C)O)n2cnc3c(N)ncnc32)s1
- remaining at 0.5 h [1]: 76%
- remaining at 0.5 h [2]: 95%
- Drug metabolism [3]: 0.07 nmol/min/mg
- Ki (Adenosine deaminase; read-out: Ki): 2.1 nM
- remaining at 0.5 h [4]: 64%
- half-life [5]: > 30 min
- half-life [6]: > 30 min
- half-life [7]: > 30 min
- Drug metabolism [8]: 0.11 nmol/min/mg
- remaining at 0.5 h [9]: 58%
- remaining at 0.5 h [10]: 90%
- Drug metabolism [11]: 0.15 nmol/min/mg
- remaining at 0.5 h [12]: 95%

Compound: CC(=O)[C@@H](CCc1ccc(C(F)(F)F)cc1)n1cnc2c(N)ncnc21
- Ki (Adenosine deaminase): Not Active

Compound: C[C@H](O)[C@@H](CCc1ccccc1C(F)(F)F)n1cnc2c(N)ncnc21
- Ki (Adenosine deaminase; read-out: Ki): 6.2 nM

Compound: C[C@H](O)[C@@H](CCc1ccc(C(F)(F)F)cc1)n1cnc(C(N)=O)c1
- Ki (Adenosine deaminase; read-out: Ki): 29 nM

Compound: C[C@H](O)[C@@H](CCc1cccc(C(F)(F)F)c1)n1ncc2c(N)ncnc21
- Ki (Adenosine deaminase): Not Active

Compound: C[C@H](O)[C@@H](CSc1cccc(C(F)(F)F)c1)n1cnc2c(N)ncnc21
- remaining at 0.5 h [1]: 83%
- remaining at 0.5 h [2]: 100%
- Drug metabolism [3]: 0.05 nmol/min/mg
- Ki (Adenosine deaminase; read-out: Ki): 25 nM
- remaining at 0.5 h [4]: 43%
- half-life [5]: 25 min
- half-life [6]: > 100 min
- half-life [7]: > 100 min
- Drug metabolism [8]: 0.22 nmol/min/mg
- remaining at 0.5 h [9]: 83%
- remaining at 0.5 h [10]: 100%
- Drug metabolism [11]: 0.05 nmol/min/mg
- remaining at 0.5 h [12]: 89%

Next, values leading:

- Ki (Adenosine deaminase; read-out: Ki): 0.6 nM
Compound: C[C@H](O)[C@@H](CCc1cccc(Br)c1)n1cnc2c(N)ncnc21

- Ki (Adenosine deaminase; read-out: Ki): 2.2 nM
Compound: C[C@H](O)[C@@H](CCc1cccc(C(=O)N2CCCC2)c1)n1cnc2c(N)ncnc21

- Ki (Adenosine deaminase; read-out: Ki): 1.8 nM
Compound: C[C@H](O)[C@@H](CCc1cccc(C(=O)NC2CCCC2)c1)n1cnc2c(N)ncnc21

- Ki (Adenosine deaminase; read-out: Ki): 53 nM
Compound: C[C@H](O)[C@@H](CCc1cccc(C(=O)O)c1)n1cnc2c(N)ncnc21

- Ki (Adenosine deaminase; read-out: Ki): 1.6 nM
Compound: C[C@H](O)[C@@H](CCc1cccc(F)c1)n1cnc2c(N)ncnc21

- remaining at 0.5 h [1]: 84%
- remaining at 0.5 h [2]: 91%
- Drug metabolism [3]: 0.05 nmol/min/mg
- Ki (Adenosine deaminase; read-out: Ki): 2.6 nM
- remaining at 0.5 h [4]: 65%
- half-life [5]: > 30 min
- half-life [6]: > 30 min
- half-life [7]: > 30 min
- Drug metabolism [8]: 0.1 nmol/min/mg
- remaining at 0.5 h [9]: 76%
- remaining at 0.5 h [10]: 92%
- Drug metabolism [11]: 0.09 nmol/min/mg
- remaining at 0.5 h [12]: 100%
Compound: C[C@H](O)[C@@H](CCc1cccc(-c2nccs2)c1)n1cnc2c(N)ncnc21

- Ki (Adenosine deaminase; read-out: Ki): 2.9 nM
Compound: C[C@H](O)[C@@H](CCc1cccc(C(N)=O)c1)n1cnc2c(N)ncnc21

- remaining at 0.5 h [1]: 68%
- remaining at 0.5 h [2]: 99%
- Drug metabolism [3]: 0.1 nmol/min/mg
- Ki (Adenosine deaminase; read-out: Ki): 2.2 nM
- remaining at 0.5 h [4]: 88%
- half-life [5]: > 30 min
- half-life [6]: > 30 min
- half-life [7]: > 30 min
- Drug metabolism [8]: 0.04 nmol/min/mg
- remaining at 0.5 h [9]: 96%
- remaining at 0.5 h [10]: 100%
- Drug metabolism [11]: < 0.04 nmol/min/mg
- remaining at 0.5 h [12]: 65%
Compound: COC(=O)c1cccc(CC[C@H]([C@H](C)O)n2cnc3c(N)ncnc32)c1

- Ki (Adenosine deaminase; read-out: Ki): 1.8 nM
Compound: C[C@H](O)[C@@H](CCc1cccc(C(=O)N(C)C)c1)n1cnc2c(N)ncnc21

- remaining at 0.5 h [1]: 90%
- remaining at 0.5 h [2]: 100%
- Drug metabolism [3]: < 0.04 nmol/min/mg
- Ki (Adenosine deaminase; read-out: Ki): 2.7 nM
- remaining at 0.5 h [4]: 100%
- half-life [5]: > 30 min
- half-life [6]: > 30 min
- half-life [7]: > 30 min
- Drug metabolism [8]: < 0.04 nmol/min/mg
- remaining at 0.5 h [9]: 91%
- remaining at 0.5 h [10]: 96%
- Drug metabolism [11]: < 0.04 nmol/min/mg
- remaining at 0.5 h [12]: 92%
Compound: CNC(=O)c1cccc(CC[C@H]([C@H](C)O)n2cnc3c(N)ncnc32)c1

- Ki (Adenosine deaminase; read-out: Ki): 4.6 nM
Compound: C[C@H](O)[C@@H](CCc1cccc(CO)c1)n1cnc2c(N)ncnc21
